{"source": "patent US20090264469A1", "about": "“NOVEL DICARBOXYLIC ACID DERIVATIVES” (BIO-PROJET, priority 2004, published 2009)", "key": {"circulating lymphocytes": {"tested_on": "circulating lymphocytes", "details": "in vivo; cited from earlier work"}, "[1]": {"details": "J. Am. Soc. Nephrol., 13, 1073, 2002; cited from earlier work"}, "Human S1P2 receptor": {"target": "T1, Human S1P2 receptor (Homo sapiens, UniProt O95136)", "T1 construct": "expressed in transfected cells; host or cells: HEK 293 or CHOK1 cells (membranes)", "T1 sequence (O95136 whole entry)": "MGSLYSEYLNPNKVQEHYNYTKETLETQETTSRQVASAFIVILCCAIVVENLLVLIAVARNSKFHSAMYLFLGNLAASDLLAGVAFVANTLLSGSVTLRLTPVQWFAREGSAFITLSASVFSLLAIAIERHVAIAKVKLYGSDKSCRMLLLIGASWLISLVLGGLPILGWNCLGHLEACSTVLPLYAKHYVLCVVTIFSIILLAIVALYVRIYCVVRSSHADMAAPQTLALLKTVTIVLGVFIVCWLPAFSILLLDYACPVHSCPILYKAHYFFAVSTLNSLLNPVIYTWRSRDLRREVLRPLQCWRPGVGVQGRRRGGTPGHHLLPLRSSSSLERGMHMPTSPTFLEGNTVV", "assay": "GTP-γ-35S binding, agonist activity on S1P2 receptor", "format": "biochemical", "details": "for EC50: membranes of transfected HEK 293 or CHOK1 cells, [35S]GTP-γ-S binding; for intrinsic activity (i.a.) S1P2: relative to the maximal stimulation elicited by S1P", "source_text": "(§1) Human S1P1-5 receptor subtypes were stably expressed in HEK 293 or CHOK1 cells following transfection with corresponding plasmid constructs. Although the native cells somewhat respond to S1P, the level of expression and responsiveness of the antibiotic-resistant transfected cell lines that were selected is much higher.\n(§2) When cultivated cells reached 80% confluence, they were collected and, after lysis, cell membranes were collected by centrifugation and washed in buffer containing antiproteases.\n(§3) GTP-γ-35 S binding was performed using ˜5 μg protein of cell membranes suspended in 50 mM tris-HCl pH 7.5 containing 10 mM Mg Cl2, 100 mM NaCl and 10 μM GDP. The radioligand was 0.025 nM [35S] GTP-γ-S and non specific binding determined in the presence of 10 μM non-radioactive GTP-γ-S. S1P and receptor agonists enhance the specific binding whereas inverse agonists reduce it. The maximal stimulation elicited by S1P was taken as a reference to define full or partial agonism and calculate the intrinsic activity (i.a.) of compounds."}, "Human S1P3 receptor": {"target": "T2, Human S1P3 receptor (Homo sapiens, UniProt Q99500)", "T2 construct": "expressed in transfected cells; host or cells: HEK 293 or CHOK1 cells (membranes)", "T2 sequence (Q99500 whole entry)": "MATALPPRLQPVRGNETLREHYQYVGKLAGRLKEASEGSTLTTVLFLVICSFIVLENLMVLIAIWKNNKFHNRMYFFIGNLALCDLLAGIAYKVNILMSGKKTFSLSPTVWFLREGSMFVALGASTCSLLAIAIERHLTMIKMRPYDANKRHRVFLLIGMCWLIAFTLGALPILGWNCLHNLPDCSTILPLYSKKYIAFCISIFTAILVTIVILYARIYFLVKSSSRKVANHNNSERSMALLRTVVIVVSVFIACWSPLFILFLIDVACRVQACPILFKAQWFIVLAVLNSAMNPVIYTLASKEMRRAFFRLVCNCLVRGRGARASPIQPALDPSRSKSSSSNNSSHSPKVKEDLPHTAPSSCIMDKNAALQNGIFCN", "assay": "GTP-γ-35S binding, agonist activity on S1P3 receptor", "format": "biochemical", "details": "for EC50: membranes of transfected HEK 293 or CHOK1 cells, [35S]GTP-γ-S binding; for intrinsic activity (i.a.) S1P3: relative to the maximal stimulation elicited by S1P", "source_text": "as §1, §2, §3"}, "Human S1P1 receptor": {"target": "T3, Human S1P1 receptor (Homo sapiens, UniProt P21453)", "T3 construct": "expressed in transfected cells; host or cells: HEK 293 or CHOK1 cells (membranes)", "T3 sequence (P21453 whole entry)": "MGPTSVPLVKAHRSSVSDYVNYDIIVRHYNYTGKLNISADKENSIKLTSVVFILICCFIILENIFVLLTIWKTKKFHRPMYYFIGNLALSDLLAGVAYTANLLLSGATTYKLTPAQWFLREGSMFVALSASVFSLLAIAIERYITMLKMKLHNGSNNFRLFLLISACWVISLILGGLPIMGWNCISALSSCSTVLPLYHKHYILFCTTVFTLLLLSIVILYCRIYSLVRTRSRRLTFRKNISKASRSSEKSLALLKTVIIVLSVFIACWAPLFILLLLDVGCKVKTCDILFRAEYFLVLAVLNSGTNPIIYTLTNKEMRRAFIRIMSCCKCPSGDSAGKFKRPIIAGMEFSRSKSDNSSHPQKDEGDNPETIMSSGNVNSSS", "assay": "GTP-γ-35S binding, agonist activity on S1P1 receptor", "format": "biochemical", "details": "for EC50: membranes of transfected HEK 293 or CHOK1 cells, [35S]GTP-γ-S binding; for intrinsic activity (i.a.) S1P1: relative to the maximal stimulation elicited by S1P", "source_text": "as §1, §2, §3"}}, "data": [{"smiles": "CCCCCCCCc1ccc(CCC(N)(CO)CO)cc1", "note": "[FTY 720]", "values": [{"measurement": "circulating lymphocytes", "setting": "circulating lymphocytes", "result": "decrease"}, {"measurement": "adverse event", "setting": "[1]", "result": "transient asymptomatic bradycardia"}]}, {"smiles": "CCCCCCCCCc1ccc(CNC2CCC(C(=O)O)(C(=O)O)C2)cc1", "note": "(centres unmarked) [Example 3, 3-(4-nonylbenzylamino)cyclopentane-1,1-dicarboxylic acid]", "values": [{"measurement": "EC50", "setting": "Human S1P2 receptor", "result": 4, "unit": "nM"}, {"measurement": "intrinsic activity (i.a.) S1P2", "setting": "Human S1P2 receptor", "result": 1}, {"measurement": "EC50", "setting": "Human S1P3 receptor", "result": "> 1000", "unit": "nM"}, {"measurement": "intrinsic activity (i.a.) S1P3", "setting": "Human S1P3 receptor", "result": "~0.3"}, {"measurement": "EC50", "setting": "Human S1P1 receptor", "result": 6, "unit": "nM"}, {"measurement": "intrinsic activity (i.a.) S1P1", "setting": "Human S1P1 receptor", "result": 1}]}, {"smiles": "CCCCCCCCCCc1ccc(CNC2CCC(C(=O)O)(C(=O)O)C2)cc1", "note": "(centres unmarked) [Example 12, 3-(4-decylbenzylamino)cyclopentane-1,1-dicarboxylic acid]", "values": [{"measurement": "EC50", "setting": "Human S1P2 receptor", "result": 5, "unit": "nM"}, {"measurement": "intrinsic activity (i.a.) S1P2", "setting": "Human S1P2 receptor", "result": 1}, {"measurement": "EC50", "setting": "Human S1P3 receptor", "result": "> 1000", "unit": "nM"}, {"measurement": "intrinsic activity (i.a.) S1P3", "setting": "Human S1P3 receptor", "result": "~0.3"}, {"measurement": "EC50", "setting": "Human S1P1 receptor", "result": 13, "unit": "nM"}, {"measurement": "intrinsic activity (i.a.) S1P1", "setting": "Human S1P1 receptor", "result": 1}]}]}
